What is called IC50 is the concentration needed to halve the response being measured. Read a low IC50 as greater potency.

Read-outs that look alike come from different tables or passages of the source. Marks after values point to notes of the source that are not given here. Bridges are numbered along the chain shown (N, C = ends). Where no end group is shown, it is not given here.

Series [1] has as its target T1, mTRΔ8 (Mus musculus, UniProt Q9JLT4). The experiment in a line: Substrate reduction by truncated mammalian TR. It counts as biochemical. Particulars: for Reduction by the truncated enzyme (in words): direct reduction by the N-terminal reaction center; for pH optimum of substrate reduction: truncated Δ8 enzyme.
Series [2] concerns the target T2, mTR-GCUG (Mus musculus, UniProt Q9JLT4). The series is described as follows: Substrate reduction by full-length wild type mammalian TR.
For series [3] the following is noted: cited from earlier work.
Series [4] has as its target T1, mTRΔ8. Particulars: pH 7.0; cited from earlier work.
For series [5], the target named is T3, DmTRΔ8 (Drosophila melanogaster, UniProt P91938). The experiment in a line: Substrate reduction by truncated Drosophila TR. In kind it is biochemical.
T3 sequence (P91938 1-483 isoform P91938-2 limits assumed): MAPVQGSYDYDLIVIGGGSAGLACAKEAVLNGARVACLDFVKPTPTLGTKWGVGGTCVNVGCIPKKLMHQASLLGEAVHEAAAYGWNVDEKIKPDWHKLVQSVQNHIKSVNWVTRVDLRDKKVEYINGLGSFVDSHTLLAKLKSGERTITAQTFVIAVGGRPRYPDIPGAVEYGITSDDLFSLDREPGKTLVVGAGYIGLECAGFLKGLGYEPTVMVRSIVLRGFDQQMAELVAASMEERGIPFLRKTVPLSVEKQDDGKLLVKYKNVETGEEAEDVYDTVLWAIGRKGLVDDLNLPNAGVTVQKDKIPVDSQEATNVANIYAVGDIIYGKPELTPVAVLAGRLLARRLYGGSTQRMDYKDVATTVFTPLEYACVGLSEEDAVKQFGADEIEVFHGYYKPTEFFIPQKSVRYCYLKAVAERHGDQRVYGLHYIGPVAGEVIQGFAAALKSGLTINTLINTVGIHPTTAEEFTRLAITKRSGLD
Series [6] has as its target T1, mTRΔ8. The series is described as follows: Inhibition of TR by gold compounds. It counts as biochemical. The note with it: truncated enzyme missing C-terminal tail, 2 nM enzyme, 3 mM DTNB, pH 7.4.
Series [7] has as its target T2, mTR-GCUG. The series is described as follows: Inhibition of TR by gold compounds. In kind it is biochemical. The note with it: full-length wild type (Sec) enzyme, 4 nM enzyme, 3 mM DTNB, pH 7.4.
The target of series [8] is mTR-GCCG (Mus musculus, UniProt Q9JLT4). In kind it is biochemical. Particulars: full-length enzyme without Sec (Cys2 mutant), 4 nM enzyme, 3 mM DTNB, pH 7.4.
For series [9], the target named is T3, DmTRΔ8. Particulars: pH 7.0; cited from earlier work.
Series [10] has as its target DmTR-SCCS (Drosophila melanogaster, UniProt P91938). The series is described as follows: Substrate reduction by full-length Drosophila TR.

Chain of DmTR-SCCS (P91938 1-491 isoform P91938-2): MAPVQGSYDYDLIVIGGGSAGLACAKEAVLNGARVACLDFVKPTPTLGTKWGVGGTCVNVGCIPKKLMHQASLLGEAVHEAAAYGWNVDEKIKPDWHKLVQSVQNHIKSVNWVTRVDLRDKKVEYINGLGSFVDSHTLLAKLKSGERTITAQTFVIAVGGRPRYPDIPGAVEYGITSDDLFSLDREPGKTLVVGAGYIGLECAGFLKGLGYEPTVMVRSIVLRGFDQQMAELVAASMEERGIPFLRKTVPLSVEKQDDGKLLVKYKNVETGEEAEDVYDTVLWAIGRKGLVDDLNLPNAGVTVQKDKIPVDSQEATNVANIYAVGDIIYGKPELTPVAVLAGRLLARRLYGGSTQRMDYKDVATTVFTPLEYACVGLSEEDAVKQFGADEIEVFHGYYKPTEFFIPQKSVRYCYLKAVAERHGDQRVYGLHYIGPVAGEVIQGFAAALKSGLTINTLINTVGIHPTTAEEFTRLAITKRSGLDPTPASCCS

Regarding `N[C@@H](CSSC[C@H](N)C(=O)O)C(=O)O` [cystine], the “Reduction by the truncated enzyme (in words)” value in series [1] is listed as “could not be reduced”. Besides, in series [2], the “Reduction by the WT enzyme (in words)” value is recorded as “cannot be reduced”. For the same molecule, the “Leaving Group pKa” value in series [3] (thiolate) is ~ 8.3.
Turning to “PTVTGCCG(ox): peptide containing a Cys1-Cys2 vicinal disulfide bond (8-membered ring) (disulfide 6-7)”, the “Activity at 5 mM Substrate” value in series [4] is given as 0.153 mol NADPH/min/mol TR.
As to `O=S(O)O` [sulfite], the “Activity as substrate (in words)” value in [2] (TR form not stated, data not shown) is on record as “unable to detect activity”.
For `O=[Se]([O-])[O-].[Na+].[Na+]` [selenite, sodium selenite], the “Activity lower than the WT enzyme” value in series [1] (mTRΔ8 versus WT, pH 7.0) is 6 fold. Further, the “pH optimum of substrate reduction” value in series [1] is about 6.0.
As to `O=C(O)c1cc(SSc2ccc([N+](=O)[O-])c(C(=O)O)c2)ccc1[N+](=O)[O-]` [DTNB, 5,5′dithio-bis(2-nitrobenzoic acid), reference compound], the results for the “Activity at 5 mM Substrate” value in series [5] (pH 7.0) and in series [1] (pH 7.0) were 519 mol NADPH/min/mol TR and 2430 mol NADPH/min/mol TR, respectively.
`N[C@@H](CCC(=O)N[C@@H](CSN=O)C(=O)NCC(=O)O)C(=O)O` [GSNO, S-nitrosoglutathione]: in series [3] (HNO in GSNO), the “Leaving Group pKa” value was 4.7.
As to `CC(=O)OC[C@H]1O[C@@H]([S-])[C@H](OC(C)=O)[C@@H](OC(C)=O)[C@@H]1OC(C)=O.CCP(CC)CC.[Au+]` [auranofin], the IC50 is 850 nM in series [6] and 75 nM in [7].
Turning to `NC(=O)CCCCC1CCSS1` (centres unmarked) [lipoamide], the results for the “Higher activity in presence of 50 mM acetate” value in series [1] (pH 6.1) and in series [1] (pH 7.0) were 23.6% and 17.5%, respectively. Also, the “Drop in Km compared to lipoic acid” value in series [1] (truncated enzyme) is given as about 3 fold. In addition, in series [1], the “pH optimum of substrate reduction” value is ~ 8.5.
Regarding `OC[C@H]1O[C@H]([S-])[C@H](O)[C@@H](O)[C@@H]1O.[Au+]` [aurothioglucose], the results for the IC50 in series [6], in [7] and in series [8] were 25 nM, 83 nM and 142 nM, respectively.
For the molecule “PTPASCCS(ox): Cys1-Cys2 vicinal disulfide peptide substrate of DmTR (disulfide 6-7)”, the “Activity at 5 mM Substrate” value in series [9] is listed as 233 mol NADPH/min/mol TR.
Take `O=C(O)CCCC[C@@H]1CCSS1` [Lipoic Acid, lipoic acid]: the “Turnover faster in comparison to DTT(ox)” value in series [5] (5 mM substrate, pH 7.0) was 190 fold. Also, the “Activity at 5 mM Substrate” value in series [5] (pH 7.0) is listed as 20.8 mol NADPH/min/mol TR; in [1] (pH 6.1), 102 mol NADPH/min/mol TR; in series [1] (pH 7.0) it was 87.7 mol NADPH/min/mol TR. The “pH optimum of substrate reduction” value in [5] (truncated DmTRΔ8) is listed as about 7.5; in series [1], 6.1; in series [2] (full-length enzyme) it was about 7.5; in series [10] (full-length DmTR), about 7.5. Further, the “kcat increase compared to the WT enzyme at pH 7.0” value in [1] (mTRΔ8 at pH 6.1) was about 3.6 fold.
For `N[C@@H](C[Se][Se]C[C@H](N)C(=O)O)C(=O)O` [selenocystine], in series [1], the “Reduction by the truncated enzyme (in words)” value is reported as “cannot directly reduce” and the “pH optimum of substrate reduction” value is recorded as about 8.0. Moreover, in series [10] (pH 7.0, 91 μM substrate), the “Difference in activities between the mammalian enzyme and DmTR” value was ~ 3 fold.
Take `O[C@@H]1CSSC[C@H]1O` (relative stereo) [DTT(ox), trans-4,5-dihydroxy-1,2-dithiane]: the “Activity at 5 mM Substrate” value came to 0.109 mol NADPH/min/mol TR in series [5] (pH 7.0) and 0.234 mol NADPH/min/mol TR in series [1] (pH 7.0). Also, the “Leaving Group pKa” value in series [3] is 9.2 ^e.

The record behind these values is PMC2754045 (Biochemistry, 2009).
